Assay results taken from patent US12018021B2 (UCB Biopharma SRL, priority 2018, dated 2024).

Target: IgE-Tb / sFcεRIα-Y131A-AF488 (Homo sapiens, UniProt P01854, N146Q/N252Q)
Assay: IgE-Tb / sFcεRIα-Y131A-AF488 FRET assay (protocol for examples 234 to 501)
Format: binding
Conditions: examples 234 to 501: compound with IgE-Tb 30 minutes before sFcεRIα-Y131A-AF488, incubated 18 hours at room temperature; read-out: Y131A FRET IC50 range
Outline: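 Compounds (10-point 3-fold series, top usually 10 μM, 2% DMSO) preincubated 30 min with 5 nM IgE-Tb, then 25 nM sFcεRIα-Y131A-AF488 added; 18 h at room temperature in the dark. TR-FRET ratio 520/490 nm after 337 nm excitation, background-subtracted; IC50 by four-parameter logistic fit.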

Sequence of IgE-Tb / sFcεRIα-Y131A-AF488 (P01854 whole entry N146Q/N252Q): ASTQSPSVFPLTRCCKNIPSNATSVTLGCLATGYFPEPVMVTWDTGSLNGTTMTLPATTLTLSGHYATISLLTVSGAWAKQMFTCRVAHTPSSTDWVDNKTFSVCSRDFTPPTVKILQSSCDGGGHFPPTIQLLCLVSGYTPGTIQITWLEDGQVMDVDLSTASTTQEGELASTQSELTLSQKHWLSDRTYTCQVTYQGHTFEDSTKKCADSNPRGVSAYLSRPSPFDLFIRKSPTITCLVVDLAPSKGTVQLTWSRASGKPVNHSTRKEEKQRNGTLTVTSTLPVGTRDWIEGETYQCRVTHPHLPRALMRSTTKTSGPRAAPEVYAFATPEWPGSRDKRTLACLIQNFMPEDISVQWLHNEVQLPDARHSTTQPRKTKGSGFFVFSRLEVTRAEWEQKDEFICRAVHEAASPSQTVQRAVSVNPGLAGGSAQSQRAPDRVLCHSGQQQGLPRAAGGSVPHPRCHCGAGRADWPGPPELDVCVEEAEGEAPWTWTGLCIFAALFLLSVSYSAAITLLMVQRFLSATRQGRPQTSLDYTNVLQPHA

SMILES	IC50 [nM]
O=C1NCc2c(Nc3nncn3[C@H]3CCc4sc(NC(=O)C5CC5)c(C(=O)NCC5CC5)c4C3)cccc21 [Example 244, (5S)-2-cyclopropaneamido-N-(cyclopropylmethyl)-5-{3-[(1-oxo-2,3-dihydro-1H-isoindol-4-yl)amino]-4H-1,2,4-triazol-4-yl}-4,5,6,7-tetrahydro-1-benzothiophene-3-carboxamide]	< 1000
Cn1nc(C(F)F)cc1Nc1nncn1[C@H]1CCc2sc(NC(=O)C3CC3)c(C(=O)NCC3CC(F)(F)C3)c2C1 [Example 389, (5S)-2-(cyclopropanecarbonylamino)-N-[(3,3-difluorocyclobutyl)methyl]-5-[3-[[5-(difluoromethyl)-2-methylpyrazol-3-yl]amino]-1,2,4-triazol-4-yl]-4,5,6,7-tetrahydro-1-benzothiophene-3-carboxamide]	< 1000
Cn1nc(OC(F)F)cc1Nc1nncn1[C@H]1CCc2sc(NC(=O)[C@H]3C[C@@H]3F)c(C(=O)NC[C@@H]3CC3(F)F)c2C1 (single isomer, unassigned) [Example 375]	< 1000
C[C@H]1C[C@@H]1C(=O)Nc1sc2c(c1C(=O)NC[C@H]1C[C@@H]1F)C[C@@H](n1cnnc1Nc1cc(C(F)F)nn1C)CC2 [Example 436, (5S)-5-[3-[[5-(difluoromethyl)-2-methylpyrazol-3-yl]amino]-1,2,4-triazol-4-yl]-N-[[(1R,2S)-2-fluorocyclopropyl]methyl]-2-[[(1S,2S)-2-methylcyclopropanecarbonyl]amino]-4,5,6,7-tetrahydro-1-benzothiophene-3-carboxamide]	< 1000
Cn1nc(C(F)F)cc1Nc1nncn1[C@H]1CCc2sc(NC(=O)C3COC3)c(C(=O)NCC3CC3)c2C1 [Example 356, N-[(5S)-3-(cyclopropylmethylcarbamoyl)-5-[3-[[5-(difluoromethyl)-2-methylpyrazol-3-yl]amino]-1,2,4-triazol-4-yl]-4,5,6,7-tetrahydro-1-benzothiophen-2-yl]oxetane-3-carboxamide]	< 1000
Cn1nc(OC(F)F)cc1Nc1nncn1[C@H]1CCc2sc(NC(=O)[C@H]3CC3(F)F)c(C(=O)NCC3CC3)c2C1 (relative stereo) [Example 345, (5S)—N-(cyclopropylmethyl)-2-[[(1R*)-2,2-difluorocyclopropanecarbonyl]amino]-5-[3-[[5-(difluoromethoxy)-2-methylpyrazol-3-yl]amino]-1,2,4-triazol-4-yl]-4,5,6,7-tetrahydro-1-benzothiophene-3-carboxamide (* or S)]	< 1000
Cc1nc(C#N)ccc1Nc1nncn1[C@H]1CCc2sc(NC(=O)C3CC3)c(C(=O)NCC3CC3)c2C1 [Example 300, (5S)-5-[3-[(6-cyano-2-methyl-3-pyridyl)amino]-1,2,4-triazol-4-yl]-2-(cyclopropanecarbonylamino)-N-(cyclopropylmethyl)-4,5,6,7-tetrahydrobenzothiophene-3-carboxamide]	< 1000
Cn1nc(OC(F)F)cc1Nc1nncn1[C@H]1CCc2sc(NC(=O)[C@H]3C[C@H](F)C3)c(C(=O)NC[C@H]3C[C@@H]3F)c2C1 [Example 483, (5S)-5-[3-[[5-(difluoromethoxy)-2-methylpyrazol-3-yl]amino]-1,2,4-triazol-4-yl]-2-[trans-(3-fluorocyclobutanecarbonyl)amino]-N-[[(1R,2S)-2-fluorocyclopropyl]methyl]-4,5,6,7-tetrahydro-1-benzothiophene-3-carboxamide]	< 1000
COc1ccc2c(c1)Nc1c(ncn1[C@H]1CCc3sc(NC(=O)C4CC4)c(C(=O)NCC4CC4)c3C1)C(=O)N2C [Example 258, (5S)-2-(cyclopropanecarbonylamino)-N-(cyclopropylmethyl)-5-(8-methoxy-5-methyl-4-oxo-10H-imidazo[4,5-c][1,5]benzodiazepin-1-yl)-4,5,6,7-tetrahydrobenzothiophene-3-carboxamide]	< 1000
Cc1ccc(C2CC(Nc3nncn3[C@H]3CCc4sc(NC(=O)C5CC5)c(C(=O)NCC5CC5)c4C3)C2)cn1 (mixture of isomers) [Example 275, (5S)-2-(cyclopropanecarbonylamino)-N-(cyclopropylmethyl)-5-[3-[[3-(6-methyl-3-pyridyl)cyclobutyl]amino]-1,2,4-triazol-4-yl]-4,5,6,7-tetrahydrobenzothiophene-3-carboxamide]	< 1000
Cn1nc(OC(F)F)cc1Nc1nncn1[C@H]1CCc2sc(NC(=O)[C@H]3C[C@H](F)C3)c(C(=O)NCC3CC3)c2C1 [Example 343, (5S)—N-(cyclopropylmethyl)-5-[3-[[5-(difluoromethoxy)-2-methylpyrazol-3-yl]amino]-1,2,4-triazol-4-yl]-2-[trans-(3-fluorocyclobutanecarbonyl)amino]-4,5,6,7-tetrahydro-1-benzothiophene-3-carboxamide]	< 1000
Cn1nc(C(F)F)cc1Nc1nncn1[C@H]1CCc2sc(NC(=O)[C@H]3C[C@H](F)C3)c(C(=O)N[C@@H]3CC34CC4)c2C1 (single isomer, unassigned) [Example 469]	< 1000
Cn1nc(C(F)F)cc1Nc1nncn1[C@H]1CCc2sc(NC(=O)[C@H]3C[C@@H]3F)c(C(=O)NCC3CC3)c2C1 [Example 368, (5S)—N-(cyclopropylmethyl)-5-[3-[[5-(difluoromethyl)-2-methyl-pyrazol-3-yl]amino]-1,2,4-triazol-4-yl]-2-[[(1R,2S)-2-fluorocyclopropanecarbonyl]amino]-4,5,6,7-tetrahydrobenzothiophene-3-carboxamide]	< 1000
Cn1nc(OCC(F)(F)F)cc1Nc1nncn1[C@H]1CCc2sc(NC(=O)[C@H]3C[C@@H]3F)c(C(=O)NCC3CC3)c2C1 [Example 426, (5S)—N-(cyclopropylmethyl)-2-[[(1R,2S)-2-fluorocyclopropanecarbonyl]amino]-5-[3-[[2-methyl-5-(2,2,2-trifluoroethoxy)pyrazol-3-yl]amino]-1,2,4-triazol-4-yl]-4,5,6,7-tetrahydrobenzothiophene-3-carboxamide]	< 1000
Cn1nc(OC(F)F)cc1Nc1nncn1[C@H]1CCc2sc(NC(=O)[C@H]3C[C@H](F)C3)c(C(=O)NC[C@H]3CC3(F)F)c2C1 (single isomer, unassigned) [Example 488]	< 1000
Cn1nc(OC(F)F)cc1Nc1nncn1[C@H]1CCc2sc(NC(=O)[C@H]3C[C@@H]3F)c(C(=O)NC[C@H]3C[C@H](F)C3)c2C1 (single isomer, unassigned) [Example 378]	< 1000
Cn1nc(C(F)F)cc1Nc1nncn1[C@H]1CCc2sc(NC(=O)[C@H]3CC34CC4)c(C(=O)NC3CC34CC4)c2C1 (mixture of isomers) [Example 411, (5S)-5-[3-[[5-(Difluoromethyl)-2-methylpyrazol-3-yl]amino]-1,2,4-triazol-4-yl]-2-[[(2S)-spiro[2.2]pentane-2-carbonyl]amino]-N-spiro[2.2]pentan-2-yl-4,5,6,7-tetrahydro-1-benzothiophene-3-carboxamide]	< 1000
C[C@H]1C[C@@H]1C(=O)Nc1sc2c(c1C(=O)NC[C@H]1C[C@H](F)C1)C[C@@H](n1cnnc1Nc1cc(C(F)F)nn1C)CC2 [Example 437, (5S)-5-[3-[[5-(difluoromethyl)-2-methylpyrazol-3-yl]amino]-1,2,4-triazol-4-yl]-N-[trans-(3-fluorocyclobutyl)methyl]-2-[[(1S,2S)-2-methylcyclopropanecarbonyl]amino]-4,5,6,7-tetrahydro-1-benzothiophene-3-carboxamide]	< 1000
CC(=O)N1CCC(C)(Nc2nncn2[C@H]2CCc3sc(NC(=O)C4CC4)c(C(=O)NCC4CC4)c3C2)C1 (mixture of isomers) [Example 238, (5S)-5-{3-[(1-acetyl-3-methylpyrrolidin-3-yl)amino]-4H-1,2,4-triazol-4-yl}-2-cyclopropaneamido-N-(cyclopropylmethyl)-4,5,6,7-tetrahydro-1-benzothiophene-3-carboxamide]	< 1000
O=C(NCC1CC1)c1c(NC(=O)C2CC2)sc2c1C[C@@H](Nc1nc3cccnc3s1)CC2 [Example 433]	< 1000
Cn1nc(OC(F)F)cc1Nc1nncn1[C@H]1CCc2sc(NC(=O)C3CC3)c(C(=O)N[C@H]3C[C@H](F)C3)c2C1 [Example 449, (5S)-2-(cyclopropanecarbonylamino)-5-[3-[[5-(difluoromethoxy)-2-methylpyrazol-3-yl]amino]-1,2,4-triazol-4-yl]-N-(trans-3-fluorocyclobutyl)-4,5,6,7-tetrahydro-1-benzothiophene-3-carboxamide]	< 1000
C[C@H]1C[C@@H]1C(=O)Nc1sc2c(c1C(=O)NCC1CC(F)(F)C1)C[C@@H](n1cnnc1Nc1cc(C(F)F)nn1C)CC2 [Example 440, (5S)—N-[(3,3-difluorocyclobutyl)methyl]-5-[3-[[5-(difluoromethyl)-2-methylpyrazol-3-yl]amino]-1,2,4-triazol-4-yl]-2-[[(1S,2S)-2-methylcyclopropanecarbonyl]amino]-4,5,6,7-tetrahydro-1-benzothiophene-3-carboxamide]	< 1000
C[C@H]1C[C@@H]1C(=O)Nc1sc2c(c1C(=O)NC1CC(F)(F)C1)C[C@@H](n1cnnc1Nc1cc(C(F)F)nn1C)CC2 [Example 439, (5S)—N-(3,3-difluorocyclobutyl)-5-[3-[[5-(difluoromethyl)-2-methylpyrazol-3-yl]amino]-1,2,4-triazol-4-yl]-2-[[(1S,2S)-2-methylcyclopropanecarbonyl]amino]-4,5,6,7-tetrahydro-1-benzothiophene-3-carboxamide]	< 1000
C[C@H]1C[C@@H]1C(=O)Nc1sc2c(c1C(=O)NC[C@H]1C[C@@H](F)C1)C[C@@H](n1cnnc1Nc1cc(C(F)F)nn1C)CC2 [Example 442, (5S)-5-[3-[[5-(difluoromethyl)-2-methylpyrazol-3-yl]amino]-1,2,4-triazol-4-yl]-N-[cis-(3-fluorocyclobutyl)methyl]-2-[[(1S,2S)-2-methylcyclopropanecarbonyl]amino]-4,5,6,7-tetrahydro-1-benzothiophene-3-carboxamide]	< 1000
